The values below are quoted from earlier work in article PMC5248591 (Journal of Clinical Pharmacology, 2016).

SMILES strings stand for the structures. A value given as a limit tells only on which side of the number the result lay.

Series [1] concerns DLBCL. The settings on record: phase 2 study in DLBCL; cited from earlier work.
Series [2] has as its system serum levels of CCL3 and CCL4. The settings on record: cited from earlier work.

In the case of `COc1cc(Nc2ncc(F)c(Nc3ccc4c(n3)N(COP(=O)(O)O)C(=O)C(C)(C)O4)n2)cc(OC)c1OC` [fostamatinib], the overall response rate in series [1] is 3%.
Turning to `C=CC(=O)N1CCC[C@@H](n2nc(-c3ccc(Oc4ccccc4)cc3)c3c(N)ncnc32)C1` [ibrutinib], the “inhibition of serum CCL3 and CCL4 markers” value in series [2] is recorded as greater than 90%.
